Source: patent publication US11292796B2 (SIGNAL PHARMACEUTICALS, LLC, priority 2008, dated 2022)

Molecular target: T1, mTOR (Homo sapiens, UniProt P42345)
T1 construct: purchased Invitrogen PR8683A
Assay: mTOR HTR-FRET assay
Format: biochemical
Conditions: read-out: Act. Level (IC50 in mTor HTR-FRET assay)
Procedure, shortened: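 Test compounds, taken from 10 mM DMSO stocks and diluted, were mixed with mTOR enzyme (0.200 μg/mL) in Tris buffer pH 7.4 with 100 mM NaCl, 0.1% Tween-20 and 1 mM DTT. ATP/substrate addition initiated the reaction, alongside compound-free controls.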

T1 sequence (P42345 1360-2549 limits assumed): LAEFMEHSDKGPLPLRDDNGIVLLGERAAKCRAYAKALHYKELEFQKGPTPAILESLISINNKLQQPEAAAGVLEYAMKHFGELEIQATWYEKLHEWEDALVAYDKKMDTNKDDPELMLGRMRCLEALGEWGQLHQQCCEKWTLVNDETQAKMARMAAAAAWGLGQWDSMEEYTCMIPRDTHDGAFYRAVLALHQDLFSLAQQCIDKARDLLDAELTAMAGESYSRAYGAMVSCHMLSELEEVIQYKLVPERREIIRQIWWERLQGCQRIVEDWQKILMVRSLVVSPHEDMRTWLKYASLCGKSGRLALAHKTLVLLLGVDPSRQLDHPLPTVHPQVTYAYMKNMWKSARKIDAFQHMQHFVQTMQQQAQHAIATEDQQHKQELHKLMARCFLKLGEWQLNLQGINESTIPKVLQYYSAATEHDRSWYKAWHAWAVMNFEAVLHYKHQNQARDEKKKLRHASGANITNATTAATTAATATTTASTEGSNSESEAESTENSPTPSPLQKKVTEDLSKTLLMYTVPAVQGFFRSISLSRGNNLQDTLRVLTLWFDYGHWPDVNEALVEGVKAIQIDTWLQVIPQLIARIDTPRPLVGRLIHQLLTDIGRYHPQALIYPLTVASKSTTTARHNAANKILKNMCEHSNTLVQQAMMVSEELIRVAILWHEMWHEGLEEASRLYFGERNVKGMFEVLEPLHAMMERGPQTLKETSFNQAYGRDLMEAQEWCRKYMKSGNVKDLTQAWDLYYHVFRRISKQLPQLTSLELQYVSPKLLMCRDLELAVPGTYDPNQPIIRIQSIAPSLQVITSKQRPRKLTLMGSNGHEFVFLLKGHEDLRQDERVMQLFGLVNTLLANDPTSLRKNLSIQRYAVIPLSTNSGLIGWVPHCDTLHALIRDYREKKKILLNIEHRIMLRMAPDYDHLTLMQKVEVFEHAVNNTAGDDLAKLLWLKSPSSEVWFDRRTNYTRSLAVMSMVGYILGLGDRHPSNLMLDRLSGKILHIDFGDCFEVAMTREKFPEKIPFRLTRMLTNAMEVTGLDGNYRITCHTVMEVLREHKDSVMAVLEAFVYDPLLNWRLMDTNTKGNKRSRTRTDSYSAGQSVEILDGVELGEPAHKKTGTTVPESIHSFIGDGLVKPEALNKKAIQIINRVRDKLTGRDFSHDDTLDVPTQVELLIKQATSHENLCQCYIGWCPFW

SMILES: Cc1cc(-c2nnc[nH]2)ccc1-c1cnc2c(n1)N(Cc1ccccc1)C(=O)CN2 [Example 241, 1-benzyl-7-(2-methyl-4-(4H-1,2,4-triazol-3-yl)phenyl)-3,4-dihydropyrazino[2,3-b]pyrazin-2(1H)-one]
- IC50: 0.005 to 250 nM

SMILES: COCCN1C(=O)CNc2ncc(-c3ccc(-c4nnc[nH]4)c(F)c3)nc21 [Example 242, 7-(3-fluoro-4-(4H-1,2,4-triazol-3-yl)phenyl)-1-(2-methoxyethyl)-3,4-dihydropyrazino[2,3-b]pyrazin-2(1H)-one]
- IC50: 0.005 to 250 nM

SMILES: O=C1CNc2ncc(-c3ccc(-c4nnc[nH]4)c(F)c3)nc2N1CCC1CCOCC1 [Example 243, 7-(3-fluoro-4-(4H-1,2,4-triazol-3-yl)phenyl)-1-(2-(tetrahydro-2H-pyran-4-yl)ethyl)-3,4-dihydropyrazino[2,3-b]pyrazin-2(1H)-one]
- IC50: 0.005 to 250 nM

SMILES: COCCN1C(=O)CNc2ncc(-c3ccc(-c4nc[nH]n4)c(F)c3C)nc21 [Example 244, 7-(3-fluoro-2-methyl-4-(1H-1,2,4-triazol-3-yl)phenyl)-1-(2-methoxyethyl)-3,4-dihydropyrazino[2,3-b]pyrazin-2(1H)-one]
- IC50: 0.005 to 250 nM

SMILES: Cc1cc(-c2nnc[nH]2)c(F)cc1-c1cnc2c(n1)N(CCC1CCOCC1)C(=O)CN2 [Example 247, 7-(5-fluoro-2-methyl-4-(4H-1,2,4-triazol-3-yl)phenyl)-1-(2-(tetrahydro-2H-pyran-4-yl)ethyl)-3,4-dihydropyrazino[2,3-b]pyrazin-2(1H)-one]
- IC50: 0.005 to 250 nM

SMILES: Cc1c(-c2cnc3c(n2)N(CCC2CCOCC2)C(=O)CN3)ccc(-c2nc[nH]n2)c1F [Example 248, 7-(3-fluoro-2-methyl-4-(1H-1,2,4-triazol-3-yl)phenyl)-1-(2-(tetrahydro-2H-pyran-4-yl)ethyl)-3,4-dihydropyrazino[2,3-b]pyrazin-2(1H)-one]
- IC50: 0.005 to 250 nM

SMILES: CC(C)(O)c1ccc(-c2cnc3c(n2)N(CC2CCCC2)C(=O)CN3)cn1 [Example 251, 1-(cyclopentylmethyl)-7-(6-(2-hydroxypropan-2-yl)pyridin-3-yl)-3,4-dihydropyrazino[2,3-b]pyrazin-2(1H)-one]
- IC50: 500 to 1000 nM

SMILES: COCCN1C(=O)CNc2ncc(-c3ccc(C(C)(C)O)cc3)nc21 [Example 252, 7-(4-(2-hydroxypropan-2-yl)phenyl)-1-(2-methoxyethyl)-3,4-dihydropyrazino[2,3-b]pyrazin-2(1H)-one]
- IC50: 1000 to 10000 nM

SMILES: C[C@H](O)c1ccc(-c2cnc3c(n2)N(CCC2CCOCC2)C(=O)CN3)cn1 [Example 253, (S)-7-(6-(1-hydroxyethyl)pyridin-3-yl)-1-(2-(tetrahydro-2H-pyran-4-yl)ethyl)-3,4-dihydropyrazino[2,3-b]pyrazin-2(1H)-one]
- IC50: 0.005 to 250 nM

SMILES: C[C@@H](O)c1ccc(-c2cnc3c(n2)N(CCC2CCOCC2)C(=O)CN3)cn1 [Example 254, (R)-7-(6-(1-hydroxyethyl)pyridin-3-yl)-1-(2-(tetrahydro-2H-pyran-4-yl)ethyl)-3,4-dihydropyrazino[2,3-b]pyrazin-2(1H)-one]
- IC50: 0.005 to 250 nM

SMILES: CC(C)(O)c1ccc(-c2cnc3c(n2)N(Cc2ccc(C(F)(F)F)cc2)C(=O)CN3)cn1 [Example 257, 7-(6-(2-hydroxypropan-2-yl)pyridin-3-yl)-1-(4-(trifluoromethyl)benzyl)-3,4-dihydropyrazino[2,3-b]pyrazin-2(1H)-one]
- IC50: 0.005 to 250 nM

SMILES: CC(C)(O)c1ccc(-c2cnc3c(n2)N(Cc2cccc(C(F)(F)F)c2)C(=O)CN3)cn1 [Example 258, 7-(6-(2-hydroxypropan-2-yl)pyridin-3-yl)-1-(3-(trifluoromethyl)benzyl)-3,4-dihydropyrazino[2,3-b]pyrazin-2(1H)-one]
- IC50: 0.005 to 250 nM

SMILES: COCCCN1C(=O)CNc2ncc(-c3ccc(C(C)(C)O)nc3)nc21 [Example 259, 7-(6-(2-hydroxypropan-2-yl)pyridin-3-yl)-1-(3-methoxypropyl)-3,4-dihydropyrazino[2,3-b]pyrazin-2(1H)-one]
- IC50: 0.005 to 250 nM

SMILES: Cc1cc(-c2nc[nH]n2)ncc1-c1cnc2c(n1)N(CCC1CCOCC1)C(=O)CN2 [Example 260, 7-(4-methyl-6-(1H-1,2,4-triazol-3-yl)pyridin-3-yl)-1-(2-(tetrahydro-2H-pyran-4-yl)ethyl)-3,4-dihydropyrazino[2,3-b]pyrazin-2(1H)-one]
- IC50: 0.005 to 250 nM

SMILES: CNc1nc2c(C)cc(-c3cnc4c(n3)N(CC3CCOCC3)C(=O)CN4)cc2[nH]1 [Example 263, 7-(4-methyl-2-(methylamino)-1H-benzo[d]imidazol-6-yl)-1-((tetrahydro-2H-pyran-4-yl)methyl)-3,4-dihydropyrazino[2,3-b]pyrazin-2(1H)-one]
- IC50: 0.005 to 250 nM

SMILES: Cc1cc(-c2cnc3c(n2)N(CC2CCOCC2)C(=O)CN3)cc2[nH]c(N)nc12 [Example 264, 7-(2-amino-4-methyl-1H-benzo[d]imidazol-6-yl)-1-((tetrahydro-2H-pyran-4-yl)methyl)-3,4-dihydropyrazino[2,3-b]pyrazin-2(1H)-one]
- IC50: 0.005 to 250 nM

SMILES: C[C@H]1Nc2ncc(-c3ccc(C(C)(C)O)nc3)nc2N(CCC2CCOCC2)C1=O [Example 266, (R)-7-(6-(2-hydroxypropan-2-yl)pyridin-3-yl)-3-methyl-1-(2-(tetrahydro-2H-pyran-4-yl)ethyl)-3,4-dihydropyrazino[2,3-b]pyrazin-2(1H)-one]
- IC50: 500 to 1000 nM

SMILES: C[C@@H]1Nc2ncc(-c3ccc(C(C)(C)O)nc3)nc2N(CCC2CCOCC2)C1=O [Example 267, (S)-7-(6-(2-hydroxypropan-2-yl)pyridin-3-yl)-3-methyl-1-(2-(tetrahydro-2H-pyran-4-yl)ethyl)-3,4-dihydropyrazino[2,3-b]pyrazin-2(1H)-one]
- IC50: 500 to 1000 nM

SMILES: Cc1cc(-c2cnc3c(n2)N(CCC2CCOCC2)C(=O)CN3)cc2[nH]c(N)nc12 [Example 269, 7-(2-amino-4-methyl-1H-benzo[d]imidazol-6-yl)-1-(2-(tetrahydro-2H-pyran-4-yl)ethyl)-3,4-dihydropyrazino[2,3-b]pyrazin-2(1H)-one]
- IC50: 0.005 to 250 nM

SMILES: Cc1nc(-c2nc[nH]n2)ccc1-c1cnc2c(n1)N(CCO)C(=O)CN2 [Example 274, 1-(2-hydroxyethyl)-7-(2-methyl-6-(1H-1,2,4-triazol-3-yl)pyridin-3-yl)-3,4-dihydropyrazino[2,3-b]pyrazin-2(1H)-one]
- IC50: 0.005 to 250 nM
